We go through 13 molecules from PubChem BioAssay (NCI).

Where “and” joins values, the source holds several entries; their conditions need not be identical. Equal values may be shown once.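 Dose response: 5 concentrations. Exposure: 48 h. Format: 96-well plates. Endpoint: linear interpolation; highest concentration if not reached. GI50: concentration for 50% inhibition of growth. TGI: concentration producing complete growth inhibition.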

Some test systems named below: HL-60(TB) leukemia; SNB-19 CNS; UACC-62 melanoma; SF-268 CNS; SK-MEL-5 melanoma; KM12 colon; SK-OV-3 ovarian; SNB-75 CNS; HOP-62 NSCLC; OVCAR-4 ovarian.
Experiment in all cases: NCI anticancer screen, dose series, 48 h

Take `C/C(=N\NC(=O)c1cccnc1)c1cccc(/C(C)=N/NC(=O)c2cccnc2)n1`: the GI50 in the experiment with HL-60(TB) leukemia is 1.67 µM; in the experiment with SK-MEL-5 melanoma, 2.05 µM; in the experiment with SNB-75 CNS, 10.3 µM. Further, the TGI was greater than 100 µM in the experiment on HL-60(TB) leukemia; greater than 100 µM with SNB-19 CNS; 5.7 µM with UACC-62 melanoma; 30.6 µM in the experiment on SF-268 CNS; 7.12 µM in the experiment on SK-MEL-5 melanoma; greater than 100 µM in the experiment with KM12 colon. The TGI is 82.4 µM in the experiment with SK-OV-3 ovarian and 42.5 µM in the experiment with SNB-75 CNS.
As to `CC(=O)OC1CC(O)CC2=CCC3C4CCC(C(C)(O)C(O)CC5COC(=O)C5C)C4(C)CCC3C21C` (stereo unspecified), the TGI in the experiment on HL-60(TB) leukemia is 12.8 µM; in the experiment on HOP-62 NSCLC, greater than 25 µM; in the experiment with SNB-19 CNS, greater than 25 µM; in the experiment on UACC-62 melanoma, greater than 25 µM; in the experiment with SF-268 CNS, greater than 25 µM; in the experiment on SK-MEL-5 melanoma it was greater than 25 µM. The TGI with KM12 colon, in the experiment with SK-OV-3 ovarian, with OVCAR-4 ovarian and in the experiment with SNB-75 CNS was greater than 25 µM in each case.
For the molecule `O=C1c2cc3c(cc2-c2c1c1ccc(Cl)cc1c(=O)n2C[C@H](O)[C@@H](O)[C@H](O)CO)OCO3`, the GI50 is 0.0186 µM with HOP-62 NSCLC; 0.0216 µM with SNB-19 CNS; 0.0129 µM in the experiment with UACC-62 melanoma; 0.0155 µM in the experiment with SF-268 CNS; 0.0253 µM in the experiment on SK-MEL-5 melanoma; 0.138 µM with KM12 colon. Also, the GI50 with OVCAR-4 ovarian is 0.177 µM. In addition, the TGI was 0.341 µM in the experiment with HOP-62 NSCLC; greater than 100 µM with SNB-19 CNS; 0.111 µM with UACC-62 melanoma; greater than 100 µM in the experiment with SF-268 CNS; 0.0701 µM in the experiment with SK-MEL-5 melanoma; greater than 100 µM with KM12 colon. In the experiment with OVCAR-4 ovarian, this molecule showed a TGI greater than 100 µM.
As to `CC1(C)CCC2(C(=O)OC3OC(CO)C(O)C(O)C3O)CCC3(C)C(=CCC4C5(C)CCC(OC6OC(CO)C(O)C(O)C6O)C(C)(C)C5CCC43C)C2C1` (stereo unspecified), the TGI in the experiment on HL-60(TB) leukemia is 16.4 µM; with HOP-62 NSCLC, greater than 25 µM; in the experiment with SNB-19 CNS it was greater than 25 µM; in the experiment on UACC-62 melanoma, greater than 25 µM; in the experiment with SF-268 CNS, 21.8 µM; in the experiment on SK-MEL-5 melanoma it was greater than 25 µM. Also, the TGI is 19 µM in the experiment with KM12 colon, greater than 25 µM in the experiment on SK-OV-3 ovarian, greater than 25 µM with OVCAR-4 ovarian and greater than 25 µM in the experiment with SNB-75 CNS.
On to `O=[N+]([O-])c1ccc2c(c1)c(N=NC(=S)NC1CCCCC1)c(O)n2CN1CCOCC1`, for which the TGI was found to be 17.2 µM with HL-60(TB) leukemia; 23.8 µM with HOP-62 NSCLC; 22.2 µM with SNB-19 CNS; 20.5 µM in the experiment on UACC-62 melanoma; 19.2 µM with SF-268 CNS; 11.3 µM in the experiment on SK-MEL-5 melanoma. Besides, the TGI in the experiment on KM12 colon was 18 µM; in the experiment on SK-OV-3 ovarian, 25.9 µM; in the experiment on OVCAR-4 ovarian, 17.9 µM; with SNB-75 CNS, 24.2 µM.
In the case of `O=S1(=O)OC(c2ccc(O)cc2)(c2ccc(O)cc2)c2ccccc21`, the TGI with HL-60(TB) leukemia, in the experiment with HOP-62 NSCLC, in the experiment with SNB-19 CNS, in the experiment on UACC-62 melanoma, in the experiment on SF-268 CNS and in the experiment with SK-MEL-5 melanoma was greater than 100 µM each time. Besides, the TGI in the experiment with KM12 colon, with SK-OV-3 ovarian, in the experiment on OVCAR-4 ovarian and with SNB-75 CNS was greater than 100 µM each time.
`Clc1ccc(Nc2nc(Cl)c3[nH]cnc3n2)cc1Cl`: the TGI is 47.7 µM in the experiment on HL-60(TB) leukemia; 52.5 µM with HOP-62 NSCLC; greater than 100 µM in the experiment on SNB-19 CNS; greater than 100 µM in the experiment on UACC-62 melanoma; 91.3 µM in the experiment with SF-268 CNS; 52.1 µM with SK-MEL-5 melanoma. For the same molecule, the TGI in the experiment on KM12 colon is 64.7 µM; with SK-OV-3 ovarian it was greater than 100 µM; in the experiment on OVCAR-4 ovarian, greater than 100 µM; in the experiment on SNB-75 CNS, 52.3 µM.
Turning to `O=[n+]1c2c(n([O-])c3ccccc31)-c1cccc3cccc-2c13`, the TGI in the experiment with HL-60(TB) leukemia, in the experiment on SNB-19 CNS, with SF-268 CNS, in the experiment on SK-MEL-5 melanoma, with KM12 colon and in the experiment on OVCAR-4 ovarian was greater than 100 µM each time. In the experiment on SNB-75 CNS, this molecule had a TGI of 94.7 µM.
For the molecule `CCOC(=O)/C(=C\NCC(OCC)OCC)c1nc2ccccc2[nH]1`, the TGI was 52.3 µM in the experiment with HL-60(TB) leukemia; greater than 100 µM with HOP-62 NSCLC; greater than 100 µM in the experiment with SNB-19 CNS; 33.2 µM in the experiment on UACC-62 melanoma; greater than 100 µM in the experiment on SF-268 CNS; 28.5 µM in the experiment on SK-MEL-5 melanoma. Besides, the TGI in the experiment on KM12 colon was greater than 100 µM; in the experiment with SK-OV-3 ovarian, greater than 100 µM; in the experiment with OVCAR-4 ovarian it was greater than 100 µM; with SNB-75 CNS it was 61.6 µM.
Consider `CCOC(=O)C1CCn2c(nc3c2c(=O)n(C)c(=O)n3C)S1` (stereo unspecified), for which the TGI with HL-60(TB) leukemia, in the experiment with HOP-62 NSCLC, in the experiment on SNB-19 CNS, with UACC-62 melanoma, in the experiment with SF-268 CNS and in the experiment on SK-MEL-5 melanoma was greater than 100 µM in each case. In addition, the TGI in the experiment on SK-OV-3 ovarian, in the experiment with OVCAR-4 ovarian and in the experiment with SNB-75 CNS was greater than 100 µM throughout.
`N[C@H]1CCN(c2c(F)cc3c(=O)c(C(=O)O)cn4c3c2Oc2cc3c(ccc5ccccc53)cc2-4)C1`: the TGI in the experiment with HL-60(TB) leukemia was greater than 100 µM; with HOP-62 NSCLC, greater than 100 µM; with SNB-19 CNS, greater than 100 µM; in the experiment on UACC-62 melanoma, greater than 100 µM; in the experiment on SK-MEL-5 melanoma, 4.3 µM; in the experiment with KM12 colon it was greater than 100 µM. Further, the TGI in the experiment with SK-OV-3 ovarian and with OVCAR-4 ovarian was greater than 100 µM in each case.
Consider `CC[C@@]1(O)C(=O)OCc2c1cc1n(c2=O)Cc2c-1nc1ccc(O)cc1c2CC[Si](C)(C)C`, for which the TGI in the experiment with HL-60(TB) leukemia is less than 0.001 µM; in the experiment on HOP-62 NSCLC, 0.0106 µM; in the experiment on SNB-19 CNS it was greater than 100 µM; in the experiment with UACC-62 melanoma, 0.0172 µM and 0.0149 µM; in the experiment with SK-MEL-5 melanoma, 0.123 µM and 0.0438 µM; in the experiment with KM12 colon, 0.0659 µM. The TGI with OVCAR-4 ovarian was 0.0538 µM.
Consider `COc1c2c(cc3c1C(O)N1CC[C@]34[C@H]3O[C@H]3[C@H](OC)C[C@@H]14)OCO2` (stereo partly specified), for which the TGI with HL-60(TB) leukemia is 3.53 µM; in the experiment on HOP-62 NSCLC, greater than 100 µM; in the experiment on SNB-19 CNS, greater than 100 µM; in the experiment with UACC-62 melanoma it was greater than 100 µM; in the experiment with SF-268 CNS it was greater than 100 µM; in the experiment with SK-MEL-5 melanoma it was greater than 100 µM. Further, the TGI was greater than 100 µM in the experiment on KM12 colon, 97.1 µM in the experiment with SK-OV-3 ovarian, greater than 100 µM in the experiment on OVCAR-4 ovarian and greater than 100 µM in the experiment on SNB-75 CNS.
